Source: article PMC6941357, “An in vitro toolbox to accelerate anti-malarial drug discovery and development” (Malaria Journal, 2020)
Values after ≈ are worked out from the molar mass of the structure shown. Values joined by “and” are separate entries in the source; they are usually repeats but may differ in a detail not shown here. Equal entries are not always repeated.

Key:
CYP2C19 = CYP2C19 (Homo sapiens, UniProt P33261); test: Cytochrome P450 inhibition in human liver microsomes; conditions: for CYP2C19 % inhibition at max conc / inhibition at 20 µM: microsomes; for inhibition at 20 µM: human, pH 7.4
CYP2C19, sequence (P33261 whole entry, canonical isoform): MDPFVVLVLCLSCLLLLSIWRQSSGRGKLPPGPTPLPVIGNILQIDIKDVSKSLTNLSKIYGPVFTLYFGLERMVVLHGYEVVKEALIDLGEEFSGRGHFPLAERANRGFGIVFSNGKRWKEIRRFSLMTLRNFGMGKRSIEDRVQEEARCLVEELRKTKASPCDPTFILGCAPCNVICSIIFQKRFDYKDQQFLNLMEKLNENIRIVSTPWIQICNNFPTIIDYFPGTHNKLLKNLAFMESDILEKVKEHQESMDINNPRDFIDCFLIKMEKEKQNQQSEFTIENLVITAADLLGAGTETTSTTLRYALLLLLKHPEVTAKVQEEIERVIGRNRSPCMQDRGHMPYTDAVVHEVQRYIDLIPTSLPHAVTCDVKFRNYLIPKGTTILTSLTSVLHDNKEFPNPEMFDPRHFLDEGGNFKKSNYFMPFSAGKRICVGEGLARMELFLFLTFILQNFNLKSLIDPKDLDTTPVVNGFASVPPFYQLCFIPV
Procedure, shortened: (§1)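 Each compound is incubated with human liver microsomes and a probe substrate whose conversion is mediated by one CYP isoform. Reactions are then quenched with ice-cold acetonitrile, and the metabolite is determined by LC–MS.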

CYP2C9 = CYP2C9 (Homo sapiens, UniProt P11712); test: as above; conditions: for CYP2C9 % inhibition at max conc / inhibition at 20 µM: microsomes; for inhibition at 20 µM: human, pH 7.4
CYP2C9, sequence (P11712 whole entry): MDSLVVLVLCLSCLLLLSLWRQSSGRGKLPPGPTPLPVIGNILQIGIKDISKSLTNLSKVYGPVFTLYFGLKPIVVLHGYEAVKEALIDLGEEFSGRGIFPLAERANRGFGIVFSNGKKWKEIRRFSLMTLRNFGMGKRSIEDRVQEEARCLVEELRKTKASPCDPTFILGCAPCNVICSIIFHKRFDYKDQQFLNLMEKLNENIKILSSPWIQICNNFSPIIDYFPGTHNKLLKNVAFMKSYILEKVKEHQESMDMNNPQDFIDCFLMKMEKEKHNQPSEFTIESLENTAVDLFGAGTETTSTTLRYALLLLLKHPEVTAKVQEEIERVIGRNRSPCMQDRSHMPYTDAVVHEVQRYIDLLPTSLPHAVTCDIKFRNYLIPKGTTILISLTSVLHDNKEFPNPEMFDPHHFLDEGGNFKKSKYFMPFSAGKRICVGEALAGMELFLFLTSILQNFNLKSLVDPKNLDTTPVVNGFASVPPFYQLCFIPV
Procedure, shortened: as §1

CYP1A2 = molecular target: T1, CYP1A2 (Homo sapiens, UniProt P05177); test: as above
T1 sequence (P05177 1-516): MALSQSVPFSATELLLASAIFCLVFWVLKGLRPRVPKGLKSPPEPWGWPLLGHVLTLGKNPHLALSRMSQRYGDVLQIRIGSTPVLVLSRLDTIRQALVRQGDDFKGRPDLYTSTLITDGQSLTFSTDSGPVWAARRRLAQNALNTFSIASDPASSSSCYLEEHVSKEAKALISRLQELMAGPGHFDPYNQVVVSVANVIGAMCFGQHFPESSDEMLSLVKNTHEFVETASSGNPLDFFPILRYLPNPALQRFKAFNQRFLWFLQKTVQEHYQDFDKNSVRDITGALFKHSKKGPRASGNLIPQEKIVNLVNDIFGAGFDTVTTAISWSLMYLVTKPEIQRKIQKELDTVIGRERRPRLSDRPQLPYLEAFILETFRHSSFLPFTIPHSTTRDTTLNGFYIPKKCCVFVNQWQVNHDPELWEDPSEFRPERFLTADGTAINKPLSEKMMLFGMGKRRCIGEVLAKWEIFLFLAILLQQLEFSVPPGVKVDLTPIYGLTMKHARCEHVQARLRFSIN
Procedure, shortened: as §1

[1] = Solubility in biorelevant media; conditions: for solubility at 1 h / solubility: thermodynamic from solid
Experimental: Solubility of each active pharmaceutical ingredient was evaluated at 37 °C in pH 7.4 phosphate buffered saline (prepared as described for the partitioning experiments), fasted (FaSSIF-V2) and fed (FeSSIF-V2) state simulated intestinal fluids and fasted state simulated gastric fluid (FaSSGF) as described by Jantratid et al.. […] Samples were vortexed and placed in a 37 °C incubator on an orbital mixer (IKA® VXR basic Vibrax® orbital mixer) set at 600 rpm. Sampling times were 1 h for FaSSGF or 5–6 h for FaSSIF-V2, FeSSIF-V2, and PBS. These times were used to reflect the maximal likely residence times within the stomach and small intestine, respectively. Sampling was carried out by centrifuging each sample at 10,000 rpm for 3 min, transferring 300 µL aliquots into fresh Eppendorf tubes and centrifuging these tubes again at 10,000 rpm for 3 min. Triplicate aliquots of the supernatant were then removed and diluted 1:2 in 50% aqueous methanol and then again in 50% aqueous acetonitrile to be within the analytical concentration range. Samples were analysed by LC–MS along with calibration standards (Additional file 1: Table S2).

[2] = Solubility limited absorbable dose (SLAD) calculation with predicted human jejunal Peff; conditions: for solubility: FaSSIF
From the text: Predicted Peff values were obtained from a calibration plot of literature Peff values vs measured Caco-2 Papp using either buffer or plasma as the transport medium (see Results section).

[3] = FaSSGF, 37 °C, fassgf or other biorelevant
[4] = phosphate buffered saline pH 7.4, 37 °C, pH 7.4, aqueous buffer
[5] = based on ref 80 and control compounds
[6] = from Caco-2 Papp via calibration plot
[7] = FaSSGF, FaSSIF-V2, FeSSIF-V2 and PBS pH 7.4, 37 °C, pH 7.4, aqueous buffer

| Structure (SMILES) | IC50 (CYP2C19) [µM] | CYP2C19 % inhibition at max conc (CYP2C19) | IC50 (CYP2C9) [µM] | CYP2C9 % inhibition at max conc (CYP2C9) | IC50 (CYP1A2) [µM] | CYP1A2 % inhibition at max conc (CYP1A2; microsomes) | solubility at 1 h [1, 3] | solubility ([1]; FaSSIF-V2, 37 °C, fassif) | solubility ([1]; FeSSIF-V2, 37 °C, fessif) | solubility [1, 4] | solubility [2] [µg/mL] | An (absorption number) ([2]; Peff × tres/R, minimum 1) | SLAD ([2]; Ssi × V (500 mL) × Mp) [mg] | Permeability classification [2, 5] | Predicted human Peff [2, 6] | inhibition at 20 µM (CYP2C19) [%] | further results |
| --- | --- | --- | --- | --- | --- | --- | --- | --- | --- | --- | --- | --- | --- | --- | --- | --- | --- |
| CCCCN(CCCC)CC(O)c1cc(Cl)cc2c1-c1ccc(Cl)cc1/C2=C/c1ccc(Cl)cc1 (stereo not shown) [Lumefantrine] | > 20 | nmi | > 20 | nmi | > 20 | nmi | 12.6 µg/mL and 23.8 µM | 0.063 µg/mL and 0.119 µM | 14.4 µg/mL and 27.2 µM | < 0.05 µg/mL and < 0.1 µM | – | – | – | – | – | – | – |
| COc1ccc2nc3cc(Cl)ccc3c(Nc3cc(CN4CCCC4)c(O)c(CN4CCCC4)c3)c2n1 [Pyronaridine] | > 20 | nmi | > 20 | nmi | > 20 | – | > 2000 µg/mL and > 3800 µM | > 2000 µg/mL and > 3860 µM | > 2000 µg/mL and > 3800 µM | 357 µg/mL and 689 µM | > 2000 | 1.6 | > 1610 | High (> 85% absorption (high)) | 1.4 10^−4 cm/s | – | inhibition at 20 µM (CYP1A2; human, microsomes, pH 7.4): 30% |
| O=C1C(O)=C([C@H]2CC[C@H](c3ccc(Cl)cc3)CC2)C(=O)c2ccccc21 [Atovaquone] | > 20 | nmi | > 20 | – | > 20 | nmi | 0.26 µg/mL and 0.71 µM | 1.83 µg/mL and 4.99 µM | 6.41 µg/mL and 17.5 µM | < 0.05 µg/mL and < 0.1 µM | 1.83 (≈ 4.99 µM) | 13 | 12 | High (> 85% absorption (high)) | 11 10^−4 cm/s | – | inhibition at 20 µM (CYP2C9): 26% |
| C[C@H]1[C@@H](O)O[C@@H]2O[C@@]3(C)CC[C@H]4[C@H](C)CC[C@@H]1[C@@]24OO3 [Dihydroartemisinin] | > 20 | nmi | > 20 | nmi | 11 | – | 140 µg/mL and 492 µM | – | – | – | – | 5.2 | 413 | High (> 85% absorption (high)) | 4.4 10^−4 cm/s | – | Ki (CYP1A2): 6.2 µM |
| COc1cc(NC(C)CCCN)c2ncccc2c1 (stereo not shown) [Primaquine] | – | – | – | – | – | – | – | – | – | – | > 2000 | – | – | – | – | 34 | Permeability classification [2]: High (key: High: > 85% absorption (high); Intermediate: 50–84% absorption (intermediate); Low: < 50% absorption (low)); An (absorption number) ([2]; human): 3.6; Predicted human Peff ([2]; human): 3.0 10^−4 cm/s; SLAD ([2]; human): > 3560 mg; inhibition at 20 µM (CYP2C9): 20%; FaSSGF solubility [1]: > 2000 µg/mL; FaSSIF solubility [1]: > 2000 µg/mL; FeSSIF solubility [1]: > 2000 µg/mL; solubility ([1]; 37 °C, fassgf or other biorelevant): > 2000 µg/mL and > 7700 µM; solubility ([1]; 37 °C, fassif): > 2000 µg/mL and > 7700 µM; solubility ([1]; 37 °C, fessif): > 2000 µg/mL and > 7700 µM; solubility ([1]; 37 °C, pH 7.4, aqueous buffer): > 7.7 mM; Solubility PBS7.4 (5–6 h) ([1]; pH 7.4): > 2000/> 7700 µg/mL |
| Clc1ccc2c(N3CCN(CCCN4CCN(c5ccnc6cc(Cl)ccc56)CC4)CC3)ccnc2c1 [Piperaquine] | > 20 | nmi | – | – | > 20 | nmi | > 2000 µg/mL and > 3700 µM | 103 µg/mL and 192 µM | 60.7 µg/mL and 113 µM | < 0.5 µg/mL and < 0.9 µM | 103 (≈ 192 µM) | 13 | 685 | High (> 85% absorption (high)) | 11 10^−4 cm/s | – | – |
| C[C@H]1c2cccc(O)c2C(=O)C2=C(O)[C@]3(O)C(=O)C(C(N)=O)=C(O)[C@@H](N(C)C)[C@@H]3[C@@H](O)[C@@H]21 [Doxycyclin] | > 20 | nmi | > 20 | nmi | – | – | > 2000 µg/mL and > 4500 µM | > 2000 µg/mL and > 4500 µM | > 2000 µg/mL and > 4500 µM | > 2000 µg/mL and > 4500 µM | > 2000 | 1.0 | > 1000 | Intermediate (50–84% absorption (intermediate)) | 0.70 10^−4 cm/s | – | solubility [1, 7]: > 2000 µg/mL |
| [H]/N=C(\N/C(=N/[H])Nc1ccc(Cl)cc1)NC(C)C [Proguanil] | > 20 | – | > 20 | nmi | > 20 | nmi | > 2000 µg/mL and > 7880 µM | > 2000 µg/mL and > 7880 µM | > 2000 µg/mL and > 7880 µM | > 2000 µg/mL and > 7880 µM | > 2000 | 1.0 | > 1000 | Intermediate (50–84% absorption (intermediate)) | 0.71 10^−4 cm/s | 27 | solubility [1, 7]: > 2000 µg/mL |
| CC[C@H]1OC(=O)[C@H](C)[C@@H](O[C@H]2C[C@@](C)(OC)[C@@H](O)[C@H](C)O2)[C@H](C)[C@@H](O[C@@H]2O[C@H](C)C[C@H](N(C)C)[C@H]2O)[C@](C)(O)C[C@@H](C)CN(C)[C@H](C)[C@@H](O)[C@]1(C)O [Azithromycin] | > 20 | – | > 20 | nmi | > 20 | nmi | 1180 µg/mL and 1570 µM | 1440 µg/mL and 1930 µM | > 2000 µg/mL and > 2670 µM | > 2000 µg/mL and > 2670 µM | – | 1.0 | 720 | Low (< 50% absorption (low)) | 0.16 10^−4 cm/s | 29 | – |
| CO[C@H]1O[C@@H]2O[C@@]3(C)CC[C@H]4[C@H](C)CC[C@@H]([C@H]1C)[C@@]24OO3 [Artemether] | > 20 | nmi | > 20 | nmi | > 20 | nmi | 95 µg/mL and 320 µM | 166 µg/mL and 556 µM | 1040 µg/mL and 3480 µM | 109 µg/mL and 365 µM | 166 (≈ 556 µM) | 4.7 | 388 | High (> 85% absorption (high)) | 3.9 10^−4 cm/s | – | – |
| CC(C)NC(=N)NC(=N)Nc1ccc(Cl)c(Cl)c1 [Chlorproguanil] | > 20 | – | > 20 | nmi | > 20 | nmi | > 2000 µg/mL and > 6940 µM | 1100 µg/mL and 3810 µM | 1670 µg/mL and 5780 µM | 1420 µg/mL and 4930 µM | 1100 (≈ 3820 µM) | 1.8 | 998 | High (> 85% absorption (high)) | 1.5 10^−4 cm/s | 39 | solubility [1, 7]: > 2000 µg/mL |
